Assay results as given in patent publication US9434724B2, “Quinuclidines for modulating alpha 7 activity” (priority 2014, dated 2016).
Read-outs that look alike come from different tables or passages of the source.

Experiments:
[1] = target: hERG channels (Homo sapiens (Human), UniProt Q12809); assay: hERG inhibition assay (automated patch clamp, CHO cells); type: cell-based
Method: hERG study was conducted with an automated patch clamp machine, Qpatch-48HT (Sophion Biosciences, Denmark). Cultured CHO cells stably expressing hERG channels (provided by Sophion Biosciences, Denmark) were harvested from culture flasks of 70-90% cell confluence rate and prepared as cell suspension with a cell density of 3-8×10^6 cells/mL in serum-free media (CHO-S-SFM II, cat#12052 Invitrogen; 25 mM HEPES). Cells in such condition were placed into a Qpatch cell stir chamber and used within 4 hours.
For each run, cells were first spun down by the built-in Qpatch centrifuge and re-suspended in an extracellular solution (in mM, 2 CaCl2, 1 MgCl2, 4 KCl, 145 NaCl, 10 Glucose, 10 HEPES, pH 7.4, osmolarity ˜305 mOsm). Qplate-48 that holds one cell in each of its 48 channels for the later voltage-clamped assay were primed with the extracellular solution and intracellular solution (in mM, 5.4 CaCl2, 1.75 MgCl2, 120 KCl, 10 HEPES, 5 EGTA, 4 NaATP, pH 7.25, Osmolarity ˜280-295 mOsm). Cells were dispatched by Qpatch robotic dispensing guns into each Qplate channel and went through the process of giga-ohm sealing and whole cell configuration. Whole-cell recordings were performed in voltage-clamp mode at a holding potential of −80 mV. […]

[2] = target: CYP3A4 (Homo sapiens (Human), UniProt P08684); settings: microsomes, 5 min
Sequence of CYP3A4 (P08684 whole entry): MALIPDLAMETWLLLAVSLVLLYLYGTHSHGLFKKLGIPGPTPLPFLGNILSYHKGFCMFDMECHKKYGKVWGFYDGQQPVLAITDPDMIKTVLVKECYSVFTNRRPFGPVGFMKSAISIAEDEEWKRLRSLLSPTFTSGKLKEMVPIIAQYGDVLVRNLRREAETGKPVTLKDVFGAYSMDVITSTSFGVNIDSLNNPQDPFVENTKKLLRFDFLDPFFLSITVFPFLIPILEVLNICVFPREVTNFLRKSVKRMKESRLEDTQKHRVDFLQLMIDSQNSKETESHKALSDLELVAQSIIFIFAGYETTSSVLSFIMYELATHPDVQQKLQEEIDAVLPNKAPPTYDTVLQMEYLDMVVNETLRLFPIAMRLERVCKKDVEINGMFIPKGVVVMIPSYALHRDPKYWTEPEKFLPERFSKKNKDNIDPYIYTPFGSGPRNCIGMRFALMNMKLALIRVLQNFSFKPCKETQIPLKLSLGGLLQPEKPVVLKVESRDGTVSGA

[3] = target: T1, rat brain nicotinic receptor (α7 NAChR) (Rattus norvegicus (Rat), UniProt Q05941); type: binding
T1 sequence (Q05941 23-502 limits assumed): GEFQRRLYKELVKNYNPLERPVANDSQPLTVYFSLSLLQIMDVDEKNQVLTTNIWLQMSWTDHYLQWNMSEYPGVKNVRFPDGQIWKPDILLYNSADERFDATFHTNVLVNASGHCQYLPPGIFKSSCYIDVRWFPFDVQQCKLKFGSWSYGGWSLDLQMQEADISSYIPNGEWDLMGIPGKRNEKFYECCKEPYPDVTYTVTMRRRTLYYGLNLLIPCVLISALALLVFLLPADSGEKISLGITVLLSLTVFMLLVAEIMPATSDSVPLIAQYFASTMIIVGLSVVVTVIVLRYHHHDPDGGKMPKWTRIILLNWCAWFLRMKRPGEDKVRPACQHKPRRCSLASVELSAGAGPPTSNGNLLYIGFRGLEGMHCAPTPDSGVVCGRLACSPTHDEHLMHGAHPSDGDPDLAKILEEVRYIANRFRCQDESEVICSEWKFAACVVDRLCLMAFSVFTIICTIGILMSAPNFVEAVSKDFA

[4] = target: CYP2C19 (Homo sapiens (Human), UniProt P33261); assay: Cytochrome P450 inhibition in human liver microsomes, CYP2C19; settings: read-out: 2C19 IC50, Protocol 1
Sequence of CYP2C19 (P33261 whole entry): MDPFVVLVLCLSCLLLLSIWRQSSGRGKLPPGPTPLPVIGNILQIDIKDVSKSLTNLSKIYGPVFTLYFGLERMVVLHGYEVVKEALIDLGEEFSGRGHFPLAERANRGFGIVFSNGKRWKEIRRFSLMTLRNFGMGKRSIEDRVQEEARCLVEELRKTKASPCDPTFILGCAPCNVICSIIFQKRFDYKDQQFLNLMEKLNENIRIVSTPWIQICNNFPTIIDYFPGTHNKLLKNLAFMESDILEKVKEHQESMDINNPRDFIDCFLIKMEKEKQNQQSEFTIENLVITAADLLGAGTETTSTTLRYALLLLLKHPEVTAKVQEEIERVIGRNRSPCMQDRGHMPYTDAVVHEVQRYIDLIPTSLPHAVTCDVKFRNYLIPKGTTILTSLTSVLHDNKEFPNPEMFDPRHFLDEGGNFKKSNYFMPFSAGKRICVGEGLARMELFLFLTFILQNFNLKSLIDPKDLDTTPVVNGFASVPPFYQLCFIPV

[5] = target: CYP2C9 (Homo sapiens (Human), UniProt P11712); assay: Cytochrome P450 inhibition in human liver microsomes, CYP2C9; settings: read-out: 2C9 IC50, Protocol 1
Sequence of CYP2C9 (P11712 whole entry): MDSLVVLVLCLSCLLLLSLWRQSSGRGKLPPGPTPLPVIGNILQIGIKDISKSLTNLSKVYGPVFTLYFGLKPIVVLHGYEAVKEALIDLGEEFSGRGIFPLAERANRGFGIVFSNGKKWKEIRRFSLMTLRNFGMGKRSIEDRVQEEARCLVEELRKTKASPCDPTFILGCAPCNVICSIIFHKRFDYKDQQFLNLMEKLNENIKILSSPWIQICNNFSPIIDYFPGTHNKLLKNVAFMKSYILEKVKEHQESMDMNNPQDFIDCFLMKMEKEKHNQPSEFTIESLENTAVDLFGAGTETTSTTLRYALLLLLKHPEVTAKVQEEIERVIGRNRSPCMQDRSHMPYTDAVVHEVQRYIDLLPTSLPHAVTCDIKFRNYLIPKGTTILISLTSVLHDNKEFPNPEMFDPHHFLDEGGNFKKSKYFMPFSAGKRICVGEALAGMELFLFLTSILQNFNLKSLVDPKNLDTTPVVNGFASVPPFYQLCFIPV

[6] = target: CYP1A2 (Homo sapiens (Human), UniProt P05177); assay: Cytochrome P450 inhibition in human liver microsomes, CYP1A2; settings: read-out: 1A2 IC50, Protocol 1
Sequence of CYP1A2 (P05177 whole entry): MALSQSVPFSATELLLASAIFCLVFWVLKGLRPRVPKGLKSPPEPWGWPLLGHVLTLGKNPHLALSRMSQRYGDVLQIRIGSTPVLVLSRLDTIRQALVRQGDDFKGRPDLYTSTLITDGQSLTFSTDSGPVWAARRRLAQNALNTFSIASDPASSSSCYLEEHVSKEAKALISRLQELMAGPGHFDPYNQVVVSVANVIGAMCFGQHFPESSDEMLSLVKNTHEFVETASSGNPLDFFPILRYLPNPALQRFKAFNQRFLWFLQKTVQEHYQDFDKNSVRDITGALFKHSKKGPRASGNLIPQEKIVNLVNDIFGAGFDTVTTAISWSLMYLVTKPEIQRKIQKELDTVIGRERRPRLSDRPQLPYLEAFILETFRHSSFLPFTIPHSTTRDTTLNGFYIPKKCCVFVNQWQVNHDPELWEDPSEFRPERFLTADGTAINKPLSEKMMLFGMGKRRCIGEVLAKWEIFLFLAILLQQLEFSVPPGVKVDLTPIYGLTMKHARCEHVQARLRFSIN

[7] = target: Human α7 NAChR (Homo sapiens (Human), UniProt P36544); assay: Electrophysiology screen at 1 μM in Xenopus laevis oocytes; type: cell-based; settings: 1 μM test compound; Imax = maximal current produced by 3 mM ACh
Sequence of Human α7 NAChR (P36544 23-502 limits assumed): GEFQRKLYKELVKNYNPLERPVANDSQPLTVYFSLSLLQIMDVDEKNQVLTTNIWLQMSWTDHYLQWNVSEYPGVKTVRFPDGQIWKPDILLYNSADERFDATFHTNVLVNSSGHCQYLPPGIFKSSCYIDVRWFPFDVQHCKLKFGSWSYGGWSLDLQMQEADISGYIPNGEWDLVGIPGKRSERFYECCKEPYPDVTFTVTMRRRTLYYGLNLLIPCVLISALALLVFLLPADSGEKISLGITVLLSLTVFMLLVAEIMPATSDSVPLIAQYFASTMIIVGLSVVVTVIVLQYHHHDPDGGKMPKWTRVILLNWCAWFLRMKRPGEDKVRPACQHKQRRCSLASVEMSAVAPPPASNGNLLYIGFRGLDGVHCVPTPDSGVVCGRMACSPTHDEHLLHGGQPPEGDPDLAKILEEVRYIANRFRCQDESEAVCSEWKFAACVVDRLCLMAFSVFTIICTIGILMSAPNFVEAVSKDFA
Method: Human α7 NAChR plasmid was prepared by GeneWiz from accession NM_000746.5. Human α7 NAChR mRNA was prepared by TriLink at a concentration near 1 μg/μL. The human α7 NAChR mRNA was diluted in sterile water to a working concentration near 10 ng/μL.
Oocytes were obtained from Xenopus laevis frogs and treated with collagenase by Ecocyte Bioscience. Oocytes were injected with the working concentration of α7 NAChR mRNA at a volume of 50 nL for a total of approximately 0.5 ng of α7 NAChR mRNA. Oocytes were maintained in Barth's solution at a temperature of 16° C. The Barth's solution was replaced daily.
Two-electrode voltage clamp recordings were made 3-14 days following mRNA injections at a holding voltage of −70 mV. The NAChR recordings were performed in Ca^++-free Ringer solution (115 mM NaCl, 2 mM KCl, 1.8 mM BaCl2, 5 mM HEPES; pH˜7.4) to limit Ca^++-activated chloride currents.
In all oocyte recordings, drug and wash solutions were applied using a custom-designed microcapillary “linear array” which allows rapid application of agonists. Currents were recorded on a PC-based computer (PClamp, Molecular Devices, Sunnyvale, Calif.). Responses were reported as (I/Imax), where I is the amount of current given by a selected concentration of drug and Imax is the amount of maximal current produced by a 3 mM solution of ACh.
Stocks of test compounds were prepared in DMSO. Test solutions in Ringer were prepared immediately before application of test compound (final DMSO concentration of 0.1%). The final concentration of test compound in the test solution was 1 μM. The test solution was perfused onto the oocyte until a peak current was recorded. There was approximately two minutes of wash time with only the Ringer solution between each application of agonist. Measurement of the test solution was repeated between 2 and 6 times with a two minute wash time between each application of test solution. An average of the currents for each test compound was used to define the response for the test compound.

[8] = Caco-2 permeability assay; type: in vitro ADME; settings: human
Method: Caco-2 cells were obtained from American Tissue Culture Collection (Rockville, Md.). The cells were maintained in Modified Eagle's medium (MEM), containing 10% heat-inactivated fetal bovine serum (FCS) and 1% non-essential amino acids, in CO2 at 37° C. Cells were seeded on polycarbonate filter inserts (Millipore, CAT#PSHT 010 R5).
The cells were cultivated for 21-28 days prior to the transport experiments. The transepithelial electric resistance (TEER) and Lucifer Yellow permeability were checked routinely before and after the assay. Compounds were dissolved at 10 mM in 100% dimethyl sulfoxide (DMSO) and diluted for studies in Hank's Balanced Salt Solution (HBSS, Invitrogen, Cat#14025-092) with 25 mM HEPES, pH 7.4. Compounds were tested at 10 μM, and in both the apical-to-basolateral (A-B) and basolateral-to-apical (B-A) directions, at 37° C. for 90 min. At the end of incubation, donor samples were diluted 10-fold by assay buffer, then 60 μL of receiver and diluted-donor samples were mixed with 60 μL of acetonitrile, and analyzed by LC-MS/MS. The concentrations of the compounds were quantified by standard curve.

[9] = target: T1, rat brain nicotinic receptor (α7 NAChR); type: binding; settings: Protocol No. 2; [3H] α-Bungarotoxin 0.4 nM, rat brain P2 membrane

Sequence of hERG channels (Q12809 whole entry): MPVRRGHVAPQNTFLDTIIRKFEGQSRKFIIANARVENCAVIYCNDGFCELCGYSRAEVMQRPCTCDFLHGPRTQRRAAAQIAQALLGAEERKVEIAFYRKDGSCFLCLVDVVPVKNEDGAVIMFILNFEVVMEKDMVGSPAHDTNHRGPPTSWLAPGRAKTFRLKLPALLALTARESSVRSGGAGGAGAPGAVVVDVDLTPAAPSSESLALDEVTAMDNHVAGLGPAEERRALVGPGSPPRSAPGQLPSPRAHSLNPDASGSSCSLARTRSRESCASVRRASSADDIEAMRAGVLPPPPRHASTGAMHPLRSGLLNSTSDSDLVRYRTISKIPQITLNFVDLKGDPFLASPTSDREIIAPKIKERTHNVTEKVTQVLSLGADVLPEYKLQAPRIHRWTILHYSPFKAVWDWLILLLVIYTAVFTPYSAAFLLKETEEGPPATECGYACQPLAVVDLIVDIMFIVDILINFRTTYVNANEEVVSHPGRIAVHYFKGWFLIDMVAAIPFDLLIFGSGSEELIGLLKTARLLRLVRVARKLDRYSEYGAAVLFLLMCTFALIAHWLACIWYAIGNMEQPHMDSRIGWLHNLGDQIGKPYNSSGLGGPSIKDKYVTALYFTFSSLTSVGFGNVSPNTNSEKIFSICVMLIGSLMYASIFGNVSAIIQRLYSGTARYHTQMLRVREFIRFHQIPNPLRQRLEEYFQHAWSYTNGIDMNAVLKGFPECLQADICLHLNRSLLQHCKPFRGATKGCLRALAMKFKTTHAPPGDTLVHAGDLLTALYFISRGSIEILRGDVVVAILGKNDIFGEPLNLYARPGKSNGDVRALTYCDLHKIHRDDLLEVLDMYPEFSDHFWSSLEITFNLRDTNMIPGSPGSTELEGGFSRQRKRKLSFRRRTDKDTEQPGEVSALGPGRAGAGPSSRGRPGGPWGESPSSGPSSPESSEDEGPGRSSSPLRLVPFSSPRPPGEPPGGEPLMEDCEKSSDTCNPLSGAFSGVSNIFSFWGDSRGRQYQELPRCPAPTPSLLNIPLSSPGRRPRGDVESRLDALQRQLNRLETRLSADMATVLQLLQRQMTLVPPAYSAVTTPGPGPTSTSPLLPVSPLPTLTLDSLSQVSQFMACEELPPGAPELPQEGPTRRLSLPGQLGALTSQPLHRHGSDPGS

Row | SMILES | IC50 [1] [nM] | IC50 [2] [nM] | IC50 [3] [nM] | Ki [3] [nM] | IC50 [4] [nM] | IC50 [5] [nM] | IC50 [6] [nM] | I/Imax [7] | efflux ratio at 90 min, 10 μM ([8]; pH 7.4, Caco-2, 10 μM) | Papp A→B at 90 min, 10 μM ([8]; pH 7.4, Caco-2, apical-to-basolateral, 10 μM) [×10⁻⁶ cm/s] | Papp B→A at 90 min, 10 μM ([8]; pH 7.4, Caco-2, basolateral-to-apical, 10 μM) [×10⁻⁶ cm/s] | IC50 [9] [nM] | Ki [9] [nM]
1 | O=C(OCC12CCN(CC1)CC2)c1c[nH]c2cc(O)cc(Cl)c12 [Compound 46, quinuclidin-4-ylmethyl 4-chloro-6-hydroxy-1H-indole-3-carboxylate] | > 30000 | > 10000 | 33.4 | 28.6 | > 10000 | > 10000 | > 10000 |  |  |  |  |  | 
2 | Cc1cc(Cl)c2c(C(=O)OCC34CCN(CC3)CC4)c[nH]c2c1.Cl [Compound 65, quinuclidin-4-ylmethyl 4-chloro-6-methyl-1H-indole-3-carboxylate hydrochloride] | 2430 |  | 63.6 | 54.6 |  |  |  | 0.212 |  |  |  |  | 
3 | COc1c(OCC(F)(F)F)ccc2[nH]cc(C(=O)OCC34CCN(CC3)CC4)c12 [Compound 88, quinuclidin-4-ylmethyl 4-methoxy-5-(2,2,2-trifluoroethoxy)-1H-indole-3-carboxylate] |  |  |  |  |  |  |  | 0.185 | 7.86 | 3.25 | 25.5 | 211 | 356
